Data reported in US10508109B2 (priority 2015, dated 2019).
Structures can show the parent of a compound that is named as a salt. Where two headings read alike, the source gives them in different places.

How the values were obtained:
[1] = test system: A549; assay: Cell-based assay, anti-proliferative activity (Cell Counting Kit-8, 72 hours); conditions: Homo sapiens, read-out: A549 IC50
Method in brief: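 Following seeding into 96-well microtiter plates, the cells receive candidate inhibitors, and cellular growth is quantified at the end of the exposure period. An IC50 is computed for each compound.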

[2] = target: SUV39H2 (Homo sapiens (Human), UniProt Q9H5I1); assay: biochemical; format: biochemical; conditions: 3H-SAM 100 nM, H3 Histone Peptide 350 nM, room temperature 3 hours
Sequence of SUV39H2 (Q9H5I1 whole entry): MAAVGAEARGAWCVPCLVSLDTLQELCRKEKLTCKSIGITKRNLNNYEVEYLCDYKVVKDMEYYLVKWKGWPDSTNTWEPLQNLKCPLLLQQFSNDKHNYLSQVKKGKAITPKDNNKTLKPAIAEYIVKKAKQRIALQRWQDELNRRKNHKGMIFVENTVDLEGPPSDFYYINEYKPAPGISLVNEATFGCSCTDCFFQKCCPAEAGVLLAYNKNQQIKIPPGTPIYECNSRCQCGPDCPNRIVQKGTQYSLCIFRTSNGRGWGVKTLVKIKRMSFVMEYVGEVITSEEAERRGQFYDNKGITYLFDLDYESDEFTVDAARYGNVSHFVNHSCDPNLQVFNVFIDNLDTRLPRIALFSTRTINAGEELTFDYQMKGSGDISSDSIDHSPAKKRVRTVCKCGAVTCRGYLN
Method: Assay buffer (4 μL) was added into all the wells, including test compound and control wells (except for Sinefungin control wells), using the Multidrop Combi. The plate was centrifuged at 1000 rpm for 1 min. […] SUV39H2 (8 μL, final conc: optimized for each lot of the enzyme based on specific activity) was added by using the Multidrop Combi. The assay plate was centrifuged at 1000 rpm for 1 min. Assay buffer was used as background control, and incubated at room temperature for 3 hours. The reaction was stopped with 20 μL of 2.5 mg/mL Streptavidin SPA beads (final conc. 50 μg/well) in buffer using the Multidrop Combi and centrifuged for 1 min. The plate was loaded into the Trilux-Microbeta counter and a delayed read of 10 hours was made. The radioactive signal was measured at 1 min/well. Sinefungin and the internal standard compound were used as tool compounds to determine assay performance.
• The following calculations were made using the obtained CPM raw data: Software used: XLFit from IDBS.
For each test plate the following results were calculated: • Average, Standard Deviation, and % CV of Background Controls • Average, Standard Deviation, and % CV of Positive Controls • Z′ value of the plate • IC50 values of standard and test compounds (in nM) • R^2 value of fitted concentration response curve • Hill slope coefficient of fitted concentration response curve • Signal to Noise Ratio

[3] = A549 cells, 72 hours exposure, Cell Counting Kit-8

Compound	IC50 [1, 3] [nM]	IC50 [2] [nM]	IC50 ([1]; A549, 72 h) [nM]
COc1cc(OC)c(-c2cn3ccc(N4CCN(c5ncc([N+](=O)[O-])cc5C#N)CC4)cc3n2)cc1Cl [Example 349, 2-(4-(2-(5-chloro-2,4-dimethoxyphenyl)imidazo[1,2-a]pyridin-7-yl)piperazin-1-yl)-5-nitronicotinonitrile]	610	14.9	
COc1cc(OC)c(-c2cn3ccc(N4CCN(c5cnc(N6CCC(N)CC6)nc5)CC4)cc3n2)cc1Cl [Example 350, 1-(5-(4-(2-(5-chloro-2,4-dimethoxyphenyl)imidazo[1,2-a]pyridin-7-yl)piperazin-1-yl)pyrimidin-2-yl)piperidin-4-amine]	680	7.35	
COc1cc(OC)c(-c2cn3ccc(N4CCN(c5ccnc(N6CCN(C)CC6)n5)CC4)cc3n2)cc1Cl [Example 351, 2-(5-chloro-2,4-dimethoxyphenyl)-7-(4-(2-(4-methylpiperazin-1-yl)pyrimidin-4-yl)piperazin-1-yl)imidazo[1,2-a]pyridine]	860	28.6	
COc1cc(OC)c(-c2cn3ccc(N4CCN(Cc5ncccn5)CC4)cc3n2)cc1Cl [Example 352, 2-(5-chloro-2,4-dimethoxyphenyl)-7-(4-(pyrimidin-2-ylmethyl)piperazin-1-yl)imidazo[1,2-a]pyridine]	10000	9.25	
COc1cc(OC)c(-c2cn3ccc(N4CCN(c5cc(N6CCCCC6)ncn5)CC4)cc3n2)cc1Cl [Example 353, 2-(5-chloro-2,4-dimethoxyphenyl)-7-(4-(6-(piperidin-1-yl)pyrimidin-4-yl)piperazin-1-yl)imidazo[1,2-a]pyridine]	780	41.9	
COc1cc(OC)c(-c2cn3ccc(N4CCN(c5ccnc(N6CCC(N)C6)n5)CC4)cc3n2)cc1Cl (stereo not shown) [Example 354, 1-(4-(4-(2-(5-chloro-2,4-dimethoxyphenyl)imidazo[1,2-a]pyridin-7-yl)piperazin-1-yl)pyrimidin-2-yl)pyrrolidin-3-amine]	490	12.9	
COc1cc(OC)c(-c2cn3ccc(N4CCN(c5cc(N6CCCC6)ncn5)CC4)cc3n2)cc1Cl [Example 355, 2-(5-chloro-2,4-dimethoxyphenyl)-7-(4-(6-(pyrrolidin-1-yl)pyrimidin-4-yl)piperazin-1-yl)imidazo[1,2-a]pyridine]	670	38.8	
COc1cc(OC)c(-c2cn3ccc(N4CCN(c5nccc(N(C)C)n5)CC4)cc3n2)cc1Cl [Example 356, 2-(4-(2-(5-chloro-2,4-dimethoxyphenyl)imidazo[1,2-a]pyridin-7-yl)piperazin-1-yl)-N,N-dimethylpyrimidin-4-amine]	380	60.6	
COc1cc(OC)c(-c2cn3ccc(N4CCN(c5ccnc(N6CCCC(O)C6)n5)CC4)cc3n2)cc1Cl (stereo not shown) [Example 357, 1-(4-(4-(2-(5-chloro-2,4-dimethoxyphenyl)imidazo[1,2-a]pyridin-7-yl)piperazin-1-yl)pyrimidin-2-yl)piperidin-3-ol]	600	25.8	
COc1cc(OC)c(-c2cn3ccc(N4CCN(c5cnc(N6CCN(C)CC6)nc5)CC4)cc3n2)cc1Cl [Example 358, 2-(5-chloro-2,4-dimethoxyphenyl)-7-(4-(2-(4-methylpiperazin-1-yl)pyrimidin-5-yl)piperazin-1-yl)imidazo[1,2-a]pyridine]	390	17.1	
COc1cc(OC)c(-c2cn3ccc(N4CCN(c5nccc(N6CCNCC6)n5)CC4)cc3n2)cc1Cl [Example 359, 2-(5-chloro-2,4-dimethoxyphenyl)-7-(4-(4-(piperazin-1-yl)pyrimidin-2-yl)piperazin-1-yl)imidazo[1,2-a]pyridine dihydrochloride]		12.2	400
COc1cc(OC)c(-c2cn3ccc(N4CCN(c5cc(Cl)nc(N)n5)CC4)cc3n2)cc1Cl [Example 360, 4-chloro-6-(4-(2-(5-chloro-2,4-dimethoxyphenyl)imidazo[1,2-a]pyridin-7-yl)piperazin-1-yl)pyrimidin-2-amine]	620	56	
COc1cc(OC)c(-c2cn3ccc(N4CCN(c5nc(N)nc(Cl)n5)CC4)cc3n2)cc1Cl [Example 361, 4-chloro-6-(4-(2-(5-chloro-2,4-dimethoxyphenyl)imidazo[1,2-a]pyridin-7-yl)piperazin-1-yl)-1,3,5-triazin-2-amine]	870	43.3	
COc1cc(OC)c(-c2cn3ccc(N4CCN(c5ccnc(N6CCNC(C)C6)n5)CC4)cc3n2)cc1Cl (stereo not shown) [Example 362, 2-(5-chloro-2,4-dimethoxyphenyl)-7-(4-(2-(3-methylpiperazin-1-yl)pyrimidin-4-yl)piperazin-1-yl)imidazo[1,2-a]pyridine]	680	15.5	
COc1cc(OC)c(-c2cn3ccc(N4CCN(c5nccc(N6CCOCC6)n5)CC4)cc3n2)cc1Cl [Example 363, 4-(2-(4-(2-(5-chloro-2,4-dimethoxyphenyl)imidazo[1,2-a]pyridin-7-yl)piperazin-1-yl)pyrimidin-4-yl)morpholine]	490	26.5	
CNc1ccnc(N2CCN(c3ccn4cc(-c5cc(Cl)c(OC)cc5OC)nc4c3)CC2)n1 [Example 364, 2-(4-(2-(5-chloro-2,4-dimethoxyphenyl)imidazo[1,2-a]pyridin-7-yl)piperazin-1-yl)-N-methylpyrimidin-4-amine]		40.7	550
COc1cc(OC)c(-c2cn3ccc(N4CCN(c5nccc(N)c5F)CC4)cc3n2)cc1Cl [Example 365, 2-(4-(2-(5-chloro-2,4-dimethoxyphenyl)imidazo[1,2-a]pyridin-7-yl)piperazin-1-yl)-3-fluoropyridin-4-amine formate]		29.7	630
COc1cc(OC)c(-c2cn3ccc(N4CCN(c5nccc(N6CCC(=O)CC6)n5)CC4)cc3n2)cc1Cl [Example 366, 1-(2-(4-(2-(5-chloro-2,4-dimethoxyphenyl)imidazo[1,2-a]pyridin-7-yl)piperazin-1-yl)pyrimidin-4-yl)piperidin-4-one]	860	62.9	
COc1cc(OC)c(-c2cn3ccc(N4CCN(c5ccnc(N6CCC(CO)C6)n5)CC4)cc3n2)cc1Cl (stereo not shown) [Example 367, (1-(4-(4-(2-(5-chloro-2,4-dimethoxyphenyl)imidazo[1,2-a]pyridine-7-yl)piperazin-1-yl)pyrimidin-2-yl)pyrrolidin-3-yl)methanol]	980	26.2	
COc1cc(OC)c(-c2cn3ccc(N4CCCN(c5ncccn5)CC4)cc3n2)cc1Cl [Example 368, 2-(5-chloro-2,4-dimethoxyphenyl)-7-(4-(pyrimidin-2-yl)-1,4-diazepan-1-yl)imidazo[1,2-a]pyridine]	990	15.7	
COc1cc(OC)c(-c2cn3ccc(N4CCN(c5cnc(N6CCN(S(=O)(=O)C7CC7)CC6)nc5)CC4)cc3n2)cc1Cl [Example 369, 2-(5-chloro-2,4-dimethoxyphenyl)-7-(4-(2-(4-(cyclopropylsulfonyl)piperazin-1-yl)pyrimidin-5-yl)piperazin-1-yl)imidazo[1,2-a]pyridine 2,2,2-trifluoroacetate]	630	57.2	
COc1cc(OC)c(-c2cn3ccc(N4CCN(c5nccc(N6CCN(C)CC6)n5)CC4)cc3n2)cc1Cl [Example 370, 2-(5-chloro-2,4-dimethoxyphenyl)-7-(4-(4-(4-methylpiperazin-1-yl)pyrimidin-2-yl)piperazin-1-yl)imidazo[1,2-a]pyridine]		12	730
COc1cc(OC)c(-c2cn3ccc(N[C@H]4CC[C@@H](NCc5cccc(C#N)c5)CC4)cc3n2)cc1Cl [Example 371, 3-(((cis-4-((2-(5-chloro-2,4-dimethoxyphenyl)imidazo[1,2-a]pyridin-7-yl)amino)cyclohexyl)amino)methyl)benzonitrile]	690	16.1	
CNC1CCN(c2nccc(N3CCN(c4ccn5cc(-c6cc(Cl)c(OC)cc6OC)nc5c4)CC3)n2)C1 (stereo not shown) [Example 372, 1-(4-(4-(2-(5-chloro-2,4-dimethoxyphenyl)imidazo[1,2-a]pyridine-7-yl)piperazin-1-yl)pyrimidin-2-yl)-N-methylpyrrolidin-3-amine trihydrochloride]		18.3	700
COc1cc(OC)c(-c2cn3ccc(N4CCN(c5nccc(N6CCN(C(C)=O)CC6)n5)CC4)cc3n2)cc1Cl [Example 373, 1-(4-(2-(4-(2-(5-chloro-2,4-dimethoxyphenyl)imidazo[1,2-a]pyridin-7-yl)piperazin-1-yl)pyrimidin-4-yl)piperazin-1-yl)ethanone 2,2,2-trifluoroacetate]	640	13.6	
COc1cc(OC)c(-c2cn3ccc(N4CCC(Nc5ccncn5)CC4)cc3n2)cc1Cl [Example 374, N-(1-(2-(5-chloro-2,4-dimethoxyphenyl)imidazo[1,2-a]pyridin-7-yl)piperidin-4-yl)pyrimidin-4-amine]	660	31.4	
